Here are results for twelve molecules from patent publication US20140271474A1, “INHIBITOR PROBES FOR IMAGING SODIUM-GLUCOSE COTRANSPORTERS IN HEALTH AND DISEASE” (THE REGENTS OF THE UNIVERSITY OF CALIFORNIA, priority 2011, published 2014).

A value given as a limit tells only on which side of the number the result lay.

The subject of one data set is SGLTs. The note with it: cited from earlier work.
The next data set has as its system SGLT2 over SGLT1. The note with it: cited from earlier work.
Data set [1] deals with T1, SGLT2 (Rattus norvegicus, UniProt P53792).
T1 sequence (P53792 1-670): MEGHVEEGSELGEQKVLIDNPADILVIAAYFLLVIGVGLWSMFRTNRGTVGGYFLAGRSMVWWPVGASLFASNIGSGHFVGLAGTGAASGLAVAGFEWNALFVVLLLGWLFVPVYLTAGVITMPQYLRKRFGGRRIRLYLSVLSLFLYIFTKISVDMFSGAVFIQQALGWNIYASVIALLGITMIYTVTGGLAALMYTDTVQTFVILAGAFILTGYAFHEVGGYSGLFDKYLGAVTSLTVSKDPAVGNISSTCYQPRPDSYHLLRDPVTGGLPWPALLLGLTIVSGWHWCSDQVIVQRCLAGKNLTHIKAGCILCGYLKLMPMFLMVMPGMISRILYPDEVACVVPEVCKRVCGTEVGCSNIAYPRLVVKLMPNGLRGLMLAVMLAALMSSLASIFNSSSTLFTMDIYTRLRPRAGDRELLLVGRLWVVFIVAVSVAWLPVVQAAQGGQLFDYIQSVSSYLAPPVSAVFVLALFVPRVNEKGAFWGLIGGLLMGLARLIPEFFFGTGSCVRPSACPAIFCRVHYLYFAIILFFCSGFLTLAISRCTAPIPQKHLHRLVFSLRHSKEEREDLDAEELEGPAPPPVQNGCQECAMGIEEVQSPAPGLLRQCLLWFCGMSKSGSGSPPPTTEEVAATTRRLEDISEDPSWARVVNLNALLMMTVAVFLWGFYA

For data set [2] the following is noted: cited from earlier work.
Data set [3] deals with SGLT2 (Homo sapiens, UniProt P31639). The note with it: read-out: Ki for SGLT2. An excerpt:
A method of making radiolabeled inhibitors pyranosides is also provided.

The target in a further data set is T2, SGLT1 (Homo sapiens, UniProt P13866).
T2 sequence (P13866 1-664): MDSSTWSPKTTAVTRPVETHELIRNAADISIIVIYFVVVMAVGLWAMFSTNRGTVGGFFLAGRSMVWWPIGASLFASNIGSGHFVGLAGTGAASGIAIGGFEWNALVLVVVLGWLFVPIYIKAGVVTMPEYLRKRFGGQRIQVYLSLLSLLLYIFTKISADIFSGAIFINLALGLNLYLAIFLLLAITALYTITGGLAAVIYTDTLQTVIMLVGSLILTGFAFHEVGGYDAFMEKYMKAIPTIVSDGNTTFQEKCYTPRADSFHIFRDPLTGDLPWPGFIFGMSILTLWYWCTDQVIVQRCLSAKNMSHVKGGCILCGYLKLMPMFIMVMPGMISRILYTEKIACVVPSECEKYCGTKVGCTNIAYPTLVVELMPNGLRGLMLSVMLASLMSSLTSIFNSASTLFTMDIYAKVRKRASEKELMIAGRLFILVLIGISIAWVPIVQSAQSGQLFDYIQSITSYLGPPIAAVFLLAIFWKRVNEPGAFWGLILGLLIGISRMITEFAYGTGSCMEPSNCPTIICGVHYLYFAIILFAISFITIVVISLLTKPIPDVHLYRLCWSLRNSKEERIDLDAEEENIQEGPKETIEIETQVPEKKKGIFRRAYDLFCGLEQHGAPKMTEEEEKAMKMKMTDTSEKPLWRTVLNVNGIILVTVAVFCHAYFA
The following applies: specific, non-metabolized substrate; cited from earlier work.

For a further data set, the system named is GLUTs. The note with it: cited from earlier work.
The conditions of data set [4]: for 1-25 hours after oral administration of dapagliflozin; cited from earlier work.
The conditions of data set [5]: major metabolite of dapagliflozin; cited from earlier work.
The conditions of data set [6]: cited from earlier work. This is another data set of the same source.
Setting [7] is: images summed 50-60 minutes post injection.
The mark [8] stands for this setting: type 2 diabetic patients, tested doses.

Chain of SGLT2 (Homo sapiens, UniProt P31639) (P31639 whole entry): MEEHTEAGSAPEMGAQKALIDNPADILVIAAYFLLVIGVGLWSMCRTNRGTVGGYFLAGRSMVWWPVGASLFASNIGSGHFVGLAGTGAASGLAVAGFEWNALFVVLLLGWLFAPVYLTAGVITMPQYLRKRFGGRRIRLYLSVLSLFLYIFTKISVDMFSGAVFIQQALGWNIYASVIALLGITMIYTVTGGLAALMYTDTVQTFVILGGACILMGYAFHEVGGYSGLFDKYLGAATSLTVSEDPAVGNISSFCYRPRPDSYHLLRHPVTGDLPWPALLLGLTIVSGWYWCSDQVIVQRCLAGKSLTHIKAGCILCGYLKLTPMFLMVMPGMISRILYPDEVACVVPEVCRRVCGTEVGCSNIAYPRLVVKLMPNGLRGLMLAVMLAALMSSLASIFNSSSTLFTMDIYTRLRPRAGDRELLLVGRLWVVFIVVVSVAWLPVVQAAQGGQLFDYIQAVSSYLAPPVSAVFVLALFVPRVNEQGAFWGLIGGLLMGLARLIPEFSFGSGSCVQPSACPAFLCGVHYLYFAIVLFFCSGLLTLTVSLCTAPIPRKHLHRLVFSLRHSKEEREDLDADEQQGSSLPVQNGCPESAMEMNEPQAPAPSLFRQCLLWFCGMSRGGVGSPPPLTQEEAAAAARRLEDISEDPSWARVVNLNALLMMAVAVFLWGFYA

`O=C[C@H]([18F])[C@@H](O)[C@H](O)[C@H](O)CO` [2-FDG, 2-deoxy-2-[18F]fluoro-D-glucose]: the “substrate for SGLTs” value with SGLTs is reported as “not a substrate”.
As to `O=CC[C@@H](O)[C@H](O)[C@H](O)CO` [2-deoxy-D-glucose], the “substrate for SGLTs” value in the data set on SGLTs was “poor substrates”.
Regarding `Cc1cc(OCCCNCC(C)(C)C(N)=O)ccc1Cc1c(O[C@@H]2O[C@H](CO)[C@@H](O)[C@H](O)[C@H]2O)n[nH]c1C(C)C` [DSP-3235], the “selectivity among SGLTs (in words)” value with SGLT2 over SGLT1 was “targets SGLT1”.
Regarding `O=C(CCc1ccc(O)cc1)c1c(O)cc(O)cc1O[C@@H]1O[C@H](CO)[C@@H](O)[C@H](O)[C@H]1O` [Phlorizin], the “[18F]-dapagliflozin binding to the kidney cortex after pre-injection of the substance” value on SGLT2 [1] (setting [7]) is recorded as “completely blocked”.
Regarding `COC(=O)OC[C@H]1O[C@@H](Oc2cc(C)cc(O)c2C(=O)CCc2ccc3occc3c2)[C@H](O)[C@@H](O)[C@@H]1O` [T-1095], in [2] (diabetic animals), the blood glucose levels result is “lowered blood glucose levels” and the renal glucose excretion entry was “resulted in renal glucose excretion”. Besides, in data set [2] (diabetic rodents), the hyperinsulinemia and hypertriglyceridemia entry was “reduced hyperinsulinemia and hypertriglyceridemia”; the post-prandial hyperglycemia result is on record as “suppressed post-prandial hyperglycemia”. For the same molecule, in [2] (oral), the “absorption of the pro-drug” value is “absorbed from the gut into the circulation”. Further, the “selectivity among SGLTs (in words)” value in the data set on SGLT2 over SGLT1 is listed as “nonselective”.
As to `CCOc1ccc(Cc2cc([C@@H]3O[C@H](CO)[C@@H](F)[C@H](O)[C@H]3O)ccc2Cl)cc1` [[18F]-dapagliflozin, (1S)-1,5-anhydro-1-C-{4-chloro-3-[(4-ethoxyphenyl)methyl]phenyl}-4-[18F]-4-deoxy-D-glucitol], the Ki (in general, the dissociation constant of the complex between target and ligand, obtained from inhibition or displacement) at SGLT2 [3] lay within 1 to 5 nM.
`CCOc1ccc(Cc2cc([C@@H]3O[C@H](CO)[C@@H]([18F])[C@H](O)[C@H]3O)ccc2Cl)cc1` [[18F]-dapagliflozin, (1S)-1,5-anhydro-1-C-{4-chloro-3-[(4-ethoxyphenyl)methyl]phenyl}-4-[18F]-4-deoxy-D-glucitol]: the “tracer binding site in microPET image” value on SGLT2 [1] (setting [7]) is recorded as “binding to the outer cortex of the kidney”. Also, the “18F-activity in the intestine” value at SGLT2 [1] (with pre-injection of dapagliflozin or phlorizin) is “excretion by the liver into bile”.
`CO[C@H]1O[C@H](CO)[C@@H](O)[C@H](O)[C@H]1O` [alpha-methyl-D-glucopyranoside]: the “concentration reached in cells above plasma concentrations” value at SGLT1 is recorded as not above 800 fold. For the same molecule, in the data set with GLUTs, the “substrate for GLUTs” value is reported as “not a substrate”.
In the case of `CCOc1ccc(Cc2cc([C@@H]3O[C@H](CO)[C@@H](O)[C@H](O[C@@H]4O[C@H](C(=O)O)[C@@H](O)[C@H](O)[C@H]4O)[C@H]3O)ccc2Cl)cc1` [dapagliflozin 3-O-glucuronide], the “plasma level of the metabolite versus native drug” value in [4] is recorded as “higher than the native drug”. Moreover, the “activity of the metabolite” value in data set [5] was “inactive”.
Consider `CCOc1ccc(Cc2cc([C@@H]3O[C@H](CO)[C@@H](O)[C@H](O)[C@H]3O)ccc2Cl)cc1` [dapagliflozin], for which the “[18F]-dapagliflozin binding to the kidney cortex after pre-injection of the substance” value on SGLT2 [1] (setting [7]) was “completely blocked”. In addition, the weight loss entry in [6] (over 28-58 weeks) was “up to 3.5 Kg”. Also, in data set [6] (setting [8]), the “reduction in fasting serum glucose” value was 22±10%, the “reduction in post-prandial glucose absorption (area under the plasma glucose concentration curve)” value is 20±10% and the “sustained urinary glucose excretion” value is on record as 30-65 gram/day. In addition, in [6] (type 2 diabetic patients), the increase in hematocrit result was “up to 3%”, the “increase in urine volume” value is recorded as “up to 470 ml/day”, the “loss of urinary glucose” value was 200 to 300 kcal/day and the “reduction in diastolic blood pressure” value was 2-5 mm Hg.
As for `O=C[C@@H](O)[C@@H](O)[C@H](O)[C@H](O)CO` [mannose], the “substrate for SGLTs” value with SGLTs is reported as “poor substrates”.
Consider `Cc1c(Cc2ccc(OC(C)C)cc2)c(O[C@@H]2O[C@H](CO)[C@@H](O)[C@H](O)[C@H]2O)nn1C(C)C` [remogliflozin], for which the “selectivity among SGLTs (in words)” value with SGLT2 over SGLT1 is “markedly increased selectivity for SGLT2”.
